Measured values from ChEMBL document CHEMBL5241059, “Evolution in non-peptide α-helix mimetics on the road to effective protein-protein interaction modulators” (Eur J Med Chem, 2021).
Each block holds one compound with its values, some of them ahead of it.

How the values were obtained:
[1] = biological target: Tumour suppressor p53/oncoprotein Mdm2 (Homo sapiens, UniProt Q00987); assay: Inhibition of HDM2-p53 (unknown origin) protein-protein interaction; format: protein assay
[2] = tested on: Human immunodeficiency virus 1; assay: Antiviral activity against HIV1 RRE-Rev assessed as inhibition of viral replication; format: functional, organism-based
[3] = Inhibition of Mcl-1/NoxaB (unknown origin) protein-protein interaction; parameters: species or system Homo sapiens
[4] = biological target: T1, Amyloid-beta precursor protein (Homo sapiens, UniProt P05067); assay: Binding affinity to amyloid beta 42 (unknown origin) assessed as dissociation constant
T1 sequence (P05067 whole entry): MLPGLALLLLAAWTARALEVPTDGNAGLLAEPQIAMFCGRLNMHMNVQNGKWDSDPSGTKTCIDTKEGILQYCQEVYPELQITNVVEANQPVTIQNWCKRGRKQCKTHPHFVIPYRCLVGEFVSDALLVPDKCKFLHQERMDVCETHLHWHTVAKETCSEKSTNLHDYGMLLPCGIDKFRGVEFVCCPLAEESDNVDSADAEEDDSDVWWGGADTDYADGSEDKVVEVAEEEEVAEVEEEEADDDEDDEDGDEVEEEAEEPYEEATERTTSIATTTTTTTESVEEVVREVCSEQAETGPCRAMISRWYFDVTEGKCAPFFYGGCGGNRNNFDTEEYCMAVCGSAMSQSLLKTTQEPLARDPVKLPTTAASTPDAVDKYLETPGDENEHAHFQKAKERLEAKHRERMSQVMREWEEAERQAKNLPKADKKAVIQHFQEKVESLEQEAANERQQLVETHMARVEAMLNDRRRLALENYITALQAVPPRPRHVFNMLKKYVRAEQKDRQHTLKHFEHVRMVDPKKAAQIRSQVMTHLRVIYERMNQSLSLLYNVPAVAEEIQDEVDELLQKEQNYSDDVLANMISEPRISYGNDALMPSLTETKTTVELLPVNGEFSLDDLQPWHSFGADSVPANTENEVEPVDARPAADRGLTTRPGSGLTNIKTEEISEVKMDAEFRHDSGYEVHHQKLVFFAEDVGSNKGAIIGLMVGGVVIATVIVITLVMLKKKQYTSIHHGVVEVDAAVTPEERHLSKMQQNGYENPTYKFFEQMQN

[5] = tested on: N2a; assay: Effect on mouse N2a cells assessed as rescue of amyloid beta toxicity; format: functional, cell-based
[6] = biological target: T2, Islet amyloid polypeptide (Homo sapiens) (UniProt P10997); assay: Disruption of beta-fibrillation of IAPP (unknown origin) assessed as half life of protein
T2 sequence (whole entry): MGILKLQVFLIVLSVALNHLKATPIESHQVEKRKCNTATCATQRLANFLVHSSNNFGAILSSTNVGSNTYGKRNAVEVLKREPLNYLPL

[7] = biological target: T3, Induced myeloid leukemia cell differentiation protein Mcl-1 (Homo sapiens, UniProt Q07820); assay: Binding affinity to fluorescent-labeled BH3 peptide from GST tagged MCL1 (172 to 320 residues) (unknown origin) expressed in Escherichia coli BL21 (DE3) incubated for 15 mins by fluorescence polarization-based competitive binding assay
T3 sequence (Q07820 whole entry, the tested form may be a part): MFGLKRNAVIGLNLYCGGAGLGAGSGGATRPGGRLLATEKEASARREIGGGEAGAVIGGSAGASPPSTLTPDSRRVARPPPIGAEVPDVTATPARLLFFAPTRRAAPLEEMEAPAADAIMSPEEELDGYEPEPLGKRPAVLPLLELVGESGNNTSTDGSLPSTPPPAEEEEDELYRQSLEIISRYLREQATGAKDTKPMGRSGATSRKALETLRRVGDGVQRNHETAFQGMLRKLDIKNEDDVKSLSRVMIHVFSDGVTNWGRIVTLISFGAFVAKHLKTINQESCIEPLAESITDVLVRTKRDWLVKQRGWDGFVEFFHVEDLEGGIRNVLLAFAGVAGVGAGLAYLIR

[8] = biological target: Histone acetyltransferase p300/Hypoxia-inducible factor 1-alpha (Homo sapiens, UniProt Q09472+Q16665); assay: Inhibition of hypoxia-induced HIF1alpha/P300 interaction (unknown origin) incubated for 30 mins for fluorescence anisotropy competition assay; format: protein-complex assay
[9] = biological target: T3, Induced myeloid leukemia cell differentiation protein Mcl-1; assay: Inhibition of FITC-labeled BH3 peptide binding to MCL1 (unknown origin)
[10] = tested on: N2a; assay: Cytotoxicity against mouse N2a cells; format: functional, cell-based
[11] = biological target: Myc proto-oncogene protein (Homo sapiens, UniProt P01106); assay: Binding affinity to c-MYC (unknown origin) assessed as dissociation constant
Sequence of Myc proto-oncogene protein (P01106 whole entry): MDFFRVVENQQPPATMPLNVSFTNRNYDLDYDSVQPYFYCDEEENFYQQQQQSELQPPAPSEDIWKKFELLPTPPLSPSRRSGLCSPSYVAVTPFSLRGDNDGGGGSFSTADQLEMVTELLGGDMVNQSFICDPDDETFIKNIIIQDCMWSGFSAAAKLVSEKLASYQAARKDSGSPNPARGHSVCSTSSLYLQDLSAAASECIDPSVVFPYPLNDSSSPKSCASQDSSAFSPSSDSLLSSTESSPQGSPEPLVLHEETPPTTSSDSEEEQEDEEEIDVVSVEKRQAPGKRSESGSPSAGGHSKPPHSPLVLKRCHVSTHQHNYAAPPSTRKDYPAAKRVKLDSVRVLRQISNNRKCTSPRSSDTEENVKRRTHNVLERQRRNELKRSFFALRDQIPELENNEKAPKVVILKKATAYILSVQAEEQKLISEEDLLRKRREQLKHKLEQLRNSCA

[12] = tested on: Human immunodeficiency virus 1; assay: Antiviral activity against HIV-1 pseudotyped virus expressing HXB-2 proteins infected in human TZM-bl cells assessed as inhibition of viral entry by luciferase based analysis; format: functional, organism-based; conditions: Human immunodeficiency virus 1, TZM-bl
[13] = Binding affinity to TAR RNA assessed as dissociation constant
[14] = tested on: MDA-MB-231; assay: Antitumor activity against human MDA-MB-231 cells xenografted in mouse assessed reduction in tumor volume measured for 30 days relative to control; format: functional; parameters: scale not given: the % may be the effect or the level left; conditions: time 30 day
[15] = biological target: HIF1A/p300/CREB-binding protein (Homo sapiens, UniProt Q09472+Q16665+Q92793); assay: Binding affinity to hypoxia induced HIF-1 alpha/P300 CH1 domain (323 to 423 residues expressed in Escherichia coli (DE3)/CBP (unknown origin) interaction assessed as dissociation constant
[16] = biological target: Trypanothione reductase (Leishmania infantum, UniProt A4HSF7); assay: Inhibition of Leishmania infantum TryR oxidoreductase activity expressed in Escherichia coli BL21 (DE3) using TS2 and NADPH as substrate by incubated for 10 mins followed by substrate addition by DTNB-reagent based spectrophotometric method
Sequence of Trypanothione reductase (A4HSF7 whole entry): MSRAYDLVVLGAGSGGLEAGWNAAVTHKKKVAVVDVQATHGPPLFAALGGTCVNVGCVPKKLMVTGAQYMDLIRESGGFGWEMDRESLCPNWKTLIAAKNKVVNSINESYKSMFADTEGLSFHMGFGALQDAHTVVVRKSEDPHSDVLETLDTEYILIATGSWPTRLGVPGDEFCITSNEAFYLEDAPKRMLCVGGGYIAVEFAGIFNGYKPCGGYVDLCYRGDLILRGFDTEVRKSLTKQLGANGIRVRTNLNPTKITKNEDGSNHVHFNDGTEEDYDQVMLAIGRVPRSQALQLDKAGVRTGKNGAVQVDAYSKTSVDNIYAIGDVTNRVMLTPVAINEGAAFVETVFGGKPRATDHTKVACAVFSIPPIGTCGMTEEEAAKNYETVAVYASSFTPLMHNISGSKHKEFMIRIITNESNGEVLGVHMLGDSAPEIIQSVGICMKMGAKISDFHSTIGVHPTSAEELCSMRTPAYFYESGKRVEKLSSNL

[17] = Binding affinity to RNA S protein (unknown origin) assessed as dissociation constant by ITC method; parameters: species or system Homo sapiens
[18] = tested on: SJSA-1; assay: cells; conditions: Homo sapiens
[19] = biological target: T3, Induced myeloid leukemia cell differentiation protein Mcl-1; assay: Displacement of fluorescent-labeled BH3 peptide from recombinant MCL1 (unknown origin) by fluorescence polarization-based competitive binding assay
[20] = biological target: T3, Induced myeloid leukemia cell differentiation protein Mcl-1; assay: Displacement of fluorescein tagged Bak BH3 peptide from MCL-1 (172 to 327 residues) (unknown origin) by fluorescence polarization competition assay
[21] = biological target: T1, Amyloid-beta precursor protein; assay: Binding affinity to amyloid beta 40 (unknown origin) by ITC method

Sequence of Tumour suppressor p53/oncoprotein Mdm2 (P04637 whole entry): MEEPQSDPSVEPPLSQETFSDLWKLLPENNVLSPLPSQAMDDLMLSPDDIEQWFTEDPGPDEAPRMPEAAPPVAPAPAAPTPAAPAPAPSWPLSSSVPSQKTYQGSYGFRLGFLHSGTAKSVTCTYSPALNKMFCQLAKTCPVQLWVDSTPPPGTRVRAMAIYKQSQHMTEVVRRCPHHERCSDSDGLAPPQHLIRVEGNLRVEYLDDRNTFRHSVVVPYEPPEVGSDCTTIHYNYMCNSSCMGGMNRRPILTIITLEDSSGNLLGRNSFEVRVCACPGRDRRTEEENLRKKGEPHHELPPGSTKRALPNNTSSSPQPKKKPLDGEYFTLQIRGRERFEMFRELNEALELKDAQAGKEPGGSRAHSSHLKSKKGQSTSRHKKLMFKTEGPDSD
Sequence of Tumour suppressor p53/oncoprotein Mdm2 (Q00987 whole entry): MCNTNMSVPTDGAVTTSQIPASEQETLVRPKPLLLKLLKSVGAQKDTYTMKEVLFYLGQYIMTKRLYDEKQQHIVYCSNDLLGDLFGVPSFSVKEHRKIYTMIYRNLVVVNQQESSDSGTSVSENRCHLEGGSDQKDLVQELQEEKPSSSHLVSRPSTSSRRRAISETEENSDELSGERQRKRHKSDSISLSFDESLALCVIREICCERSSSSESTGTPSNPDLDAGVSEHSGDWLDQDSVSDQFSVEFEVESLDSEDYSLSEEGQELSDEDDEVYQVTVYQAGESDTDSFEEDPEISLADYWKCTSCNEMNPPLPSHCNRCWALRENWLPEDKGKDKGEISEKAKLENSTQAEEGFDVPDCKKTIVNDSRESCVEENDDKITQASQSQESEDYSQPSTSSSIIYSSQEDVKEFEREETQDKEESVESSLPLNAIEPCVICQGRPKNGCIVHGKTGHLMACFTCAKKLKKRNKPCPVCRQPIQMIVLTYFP

IC50 [1]: 15 µM
Compound: CC(C)C[C@H](NC(=O)c1ccc(NC(=O)[C@@H](N)Cc2ccccc2)c(OCCc2c[nH]c3ccccc23)c1)C(=O)O

Compound: Cc1cc(-c2cc(CCN)ccc2CCN)c(C)cc1-c1cc(CCN)ccc1CCN
IC50 [2]: 47 µM

IC50 [1]: 11.9 µM
IC50 [3]: > 100 µM
Compound: CC(C)Oc1cc(NC(=O)[C@H](Cc2ccccc2)NC(=O)c2ccc(N)c(OCc3ccccc3)c2)ccc1C(=O)NCC(=O)O

Compound: CCC(C)Oc1cc(C(=O)Nc2cccc3c(OCC(=O)O)cc(C(=O)OC)nc23)nc2c(NC(=O)c3cc(OCC(=O)O)c4cccc(NC(=O)c5cc(OC(C)CC)c6cccc([N+](=O)[O-])c6n5)c4n3)cccc12 (stereo not drawn)
Kd [4]: 2.2 µM
IC50 [5]: 3 µM

T1/2 [6]: 23.1 h
Compound: CCCc1c(NC(=O)Nc2sccc2CCC(=O)O)ccc2sc(N(CCC(=O)O)C(=O)OCC)nc12

Ki [7]: 0.53 µM
Compound: O=C(O)CCCNc1nc(NCCc2ccc(O)cc2)nc(N2CCN(c3nc(NCCC(=O)O)nc(Nc4ccc(Oc5ccccc5)cc4)n3)CC2Cc2ccccc2)n1 (stereo not drawn)

IC50 [8]: 9.2 µM
Compound: CC(C)COc1cc(C(=O)Nc2ccc(C(=O)O)cc2OC(C)C)ccc1NC(=O)c1ccc([N+](=O)[O-])c(OCC(C)C)c1

IC50 [9]: 72 µM
Compound: CC(C)(C)OC(=O)N(Cc1ccccc1)c1nc(NCC(=O)O)c2ncn(Cc3cccc4ccccc34)c2n1

Compound: CC(C)COc1nc(C(=O)Nc2ccc(C(=O)Nc3ccc(C(=O)Nc4ccc(C(=O)O)nc4OCC(=O)O)nc3OCC(=O)O)nc2OCc2ccccc2)ccc1[N+](=O)[O-]
IC50 [10]: 2.5 µM

Kd [11]: 10 µM
Compound: CC(C)COc1cc(C(=O)O)ccc1NC(=O)c1ccc([N+](=O)[O-])c(OCc2ccc3ccccc3c2)c1

Compound: NCCCOc1nc(C(=O)O)ccc1NC(=O)c1ccc(NC(=O)c2ccc([N+](=O)[O-])c(OCCCN)n2)c(OCCCN)n1
IC50 [12]: 25 µM
Kd [13]: 4.1 µM

IC50 [1]: 9.3 µM
IC50 [3]: 24 µM
Compound: CCC(C)CN(C(=O)c1ccc(N(Cc2ccc3ccccc3c2)C(=O)c2ccc(NCC(C)C)cc2)cc1)c1ccc(C(=O)N[C@H](C(=O)O)[C@H](C)CC)cc1 (stereo partly drawn)

Compound: CC(C)C[C@@H]1NCCN([C@@H](CC(C)C)C(=O)N2CCN([C@@H](CCC(N)=O)C(N)=O)C(=O)[C@@H]2C)C1=O
Activity [14]: 50%
Kd [15]: 5.3 µM

Compound: COc1cc(CCN)c(-c2cc(C)c(-c3cc(CCN)c(OC)cc3CCN)cc2C)cc1CCN
IC50 [2]: 14 µM

IC50 [16]: 8.6 µM
Compound: NCCNCc1cncn1-c1ccc(-c2nc(CCc3ccc(-c4ccccc4)cc3)cs2)c(OCCN2CNCC2=O)c1

Kd [17]: 1.85 µM
Compound: CC(C)Oc1cc(NC(=O)[C@H](Cc2ccccc2)NC(=O)c2ccc(N)c(OCc3ccc(Cl)cc3)c2)ccc1C(=O)NCC(=O)O

Compound: CC(C)[C@@H](CS(=O)(=O)C(C)C)N1C(=O)[C@@](C)(CC(=O)O)C[C@H](c2cccc(Cl)c2)[C@H]1c1ccc(Cl)cc1 [NAVTEMADLIN]
IC50 [18]: 0.025 µM

IC50 [16]: 5.1 µM
Compound: NCCNCc1cncn1-c1ccc(-c2nc(CCc3ccc4ccccc4c3)cs2)c(OCCN2CNCC2=O)c1

Ki [19]: 2.6 µM
Compound: Oc1ccc(CCNc2nc3nc(n2)N2CCN(CC2Cc2ccccc2)c2nc(nc(Nc4ccc(Oc5ccccc5)cc4)n2)NCCOCCOCCOCCOCCN3)cc1 (stereo not drawn)

Ki [20]: 2.9 µM
Compound: Cc1cc(-c2ccc(C(=O)O)c(OCc3ccccc3)c2)cc(C)c1Cl

Compound: NCCCOc1nc(C(=O)O)ccc1NC(=O)c1ccc(NC(=O)c2ccc([N+](=O)[O-])c(OCc3ccccc3)n2)c(OCCCN)n1
Kd [21]: 0.7 µM
IC50 [10]: 1.4 µM

Ki [19]: 2.6 µM
Compound: Oc1ccc(CCNc2nc3nc(n2)N2CCN(CC2Cc2ccccc2)c2nc(nc(Nc4ccc(Oc5ccccc5)cc4)n2)NCCOCCOCCOCCN3)cc1 (stereo not drawn)
